Our source for the Activity, TGI and mortality values is ChEMBL document CHEMBL4665770, “Design and Discovery of Natural Cyclopeptide Skeleton Based Programmed Death Ligand 1 Inhibitor as Immune Modulator for Cancer Therapy” (J Med Chem, 2020).

Calls of active or inactive are those of the source. The calls are words filed in the database; no cut-off is given here.

For series [1], the system named is MDA-MB-231. Kind of series: Immunomodulatory activity in human CFDA SE-labelled MDA-MB-231 cells cocultured with PMBC assessed as induction of PBMC recruitment to MDA-MB-231 cells by measuring viable cells at 20 uM incubated for 48 hrs by propidium iodide staining based flow cytometry analysis (reference value: 99.87 %). Type of series: functional. In general terms: In flow cytometry, cells or beads pass a laser one at a time.

A short description of series [2]: Toxicity in mouse MC38 cells xenografted C57/BL mouse assessed as change in body weight at 40 mg/kg, ip administered every other day from day 6 post implantation measured every 2 days. The series is classed as organism-based. Conditions: in vivo, 48 h.
Series [3] deals with MC-38. Nature of the series: Immunomodulatory activity in mouse MC38 cells xenografted in C57/BL mouse assessed as increase in infiltration of CD8-positive T cells at 40 mg/kg, ip administered every other day from day 6 post implantation by DAPI staining based immunofluorescence microscopy. The series is classed as functional, organism-based.
Series [4] relates to MDA-MB-231. Nature of the series: Immunomodulatory activity in human MDA-MB-231 cells cocultured with human PBMC assessed as induction of PBMC recruitment to MDA-MB-231 cells by measuring increase in activated caspase-3 at 20 uM incubated for 24 hrs by GrennNuc caspase-3 substrate based assay. The series is classed as functional, cell-based.
The test system of series [5] is MC-38. Nature of the series: Induction of immune response mediated antitumor activity in mouse MC38 cells xenografted in C57/BL mouse assessed as tumor growth inhibition at 40 mg/kg, ip administered every other day from day 6 post implantation measured every 2 days. The series is classed as functional, organism-based.
The test system of series [6] is MC-38. Kind of series: Immunomodulatory activity in mouse MC38 cells xenografted in C57/BL mouse assessed as increase in perforin at 40 mg/kg, ip administered every other day from day 6 post implantation by hematoxylin staining based immunohistochemical analysis. Type of series: functional, organism-based.
Series [7] deals with MDA-MB-231. Nature of the series: Immunomodulatory activity in human CFDA SE-labelled MDA-MB-231 cells cocultured with PMBC assessed as induction of PBMC recruitment to MDA-MB-231 cells by measuring late apoptotic cells at 20 uM incubated for 48 hrs by propidium iodide staining based flow cytometry analysis (reference value: 0 %). The series is classed as functional.
Series [8] in a line: Toxicity in mouse MC38 cells xenografted C57/BL mouse assessed as death at 40 mg/kg, ip administered every other day from day 6 post implantation measured on day 14. Type of series: organism-based. Conditions: in vivo, time 14 day, read-out: Activity.
For series [9], the system named is MC-38. Kind of series: Immunomodulatory activity in mouse MC38 cells xenografted in C57/BL mouse assessed as increase in infiltration of CD3-positive T cells at 40 mg/kg, ip administered every other day from day 6 post implantation by DAPI staining based immunofluorescence microscopy. The series is classed as functional, organism-based.
Series [10] relates to MDA-MB-231. Nature of the series: Immunomodulatory activity in human CFDA SE-labelled MDA-MB-231 cells cocultured with PMBC assessed as induction of PBMC recruitment to MDA-MB-231 cells by measuring early apoptotic cells at 20 uM incubated for 48 hrs by propidium iodide staining based flow cytometry analysis (reference value: 0 %). The series is classed as functional.
The test system of series [11] is MC-38. Nature of the series: Immunomodulatory activity in mouse MC38 cells xenografted in C57/BL mouse assessed as increase in granzyme B at 40 mg/kg, ip administered every other day from day 6 post implantation by hematoxylin staining based immunohistochemical analysis. The series is classed as functional, organism-based.
Series [12] relates to MDA-MB-231. Nature of the series: Immunomodulatory activity in human CFDA SE-labelled MDA-MB-231 cells cocultured with PMBC assessed as induction of PBMC recruitment to MDA-MB-231 cells by measuring necrotic cell at 20 uM incubated for 48 hrs by propidium iodide staining based flow cytometry analysis (reference value: 0.13 %). Type of series: functional.

Consider `Cc1c(COc2ccc(CN3CCCCC3C(=O)O)cc2Br)cccc1-c1ccccc1` (configuration not stated), for which the Activity with MDA-MB-231 [1] is listed as 0.31%; in series [2], “Toxic”; in the series with MDA-MB-231 [7] it was 44.69%; in the series with MDA-MB-231 [10], 55%; in the series with MDA-MB-231 [12], 0%. Besides, the outcome in the series on MC-38 [3], with MDA-MB-231 [4], with MC-38 [6], in the series on MC-38 [9] and in the series on MC-38 [11] was Active. Also, the TGI entry with MC-38 [5] was “Active”. The mortality at 336 h in [8] was 75%.
